In patent EP4775570A1, “CYP11A1 INHIBITOR, PREPARATION METHOD THEREFOR AND USE THEREOF” (Shenzhen Zhongge Biological Technology Co., Ltd., priority 2023, dated 2025):

molecular target: T1, CYP11A1 (Homo sapiens, UniProt P05108); test: NCI-H295R cellular pregnenolone biosynthesis inhibition assay (ELISA method); format: cell-based; conditions: NCI-H295R cells, 3 days incubation, pregnenolone in cell supernatant by ELISA; read-out: IC50
T1 construct: host or cells: NCI-H295R
T1 sequence (P05108 40-521): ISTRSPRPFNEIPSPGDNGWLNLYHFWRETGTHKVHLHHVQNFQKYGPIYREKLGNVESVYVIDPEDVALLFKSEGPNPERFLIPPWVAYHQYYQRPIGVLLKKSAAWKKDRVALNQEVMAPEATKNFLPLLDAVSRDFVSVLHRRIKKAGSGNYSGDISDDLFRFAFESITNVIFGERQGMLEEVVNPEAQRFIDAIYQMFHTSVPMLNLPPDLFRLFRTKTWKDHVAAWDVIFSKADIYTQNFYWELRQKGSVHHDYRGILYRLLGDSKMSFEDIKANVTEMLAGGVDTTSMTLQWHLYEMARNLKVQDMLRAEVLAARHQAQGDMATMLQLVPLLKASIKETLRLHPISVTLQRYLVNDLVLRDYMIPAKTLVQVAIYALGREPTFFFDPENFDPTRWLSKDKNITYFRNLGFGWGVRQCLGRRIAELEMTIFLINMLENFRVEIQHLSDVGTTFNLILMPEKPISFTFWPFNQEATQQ
Experimental: The experiment aims to test the inhibitory effect of the compounds of the present disclosure on cellular pregnenolone biosynthesis, and to assess the inhibitory effect of the compounds on CYP11A1 target based on their IC50 values.
NCI-H295R cells (MINGZHOUBIO, MZ-2138) cultured in NCI-H295R complete medium (MINGZHOUBIO, MCM-0399).
Using culture medium, NCI-H295R cells were seeded into a new 384-well cell culture plate (Greiner, 781091) at a density of 5,000 cells per well, with 45µL of cell suspension per well. The test compounds were prepared by adding 5µL of compound solution at 10× concentration to each well, to a maximum final concentration of 10µM, followed by 3× serial dilution for 10 points, with a final DMSO concentration of 0.1%, centrifuging at 1,000 rpm for 1 minute at room temperature, and then incubating in a 5% CO2 cell incubator at 37°C for 3 days.
Pregnenolone ELISA kit (Abnova, KA1912) was used for detecting the content of pregnenolone in the supernatant of cell culture. Before detection, the reagents were allowed to come back to room temperature for 1 hour. After taking out the 384-well plate, the cellular supernatant was pipetted and subjected to 5× dilution with the Assay Buffer provided in the kit. A working solution of competitive molecule and a washing solution in accordance with the instructions was prepared. 50µL of diluted cellular supernatant were pipetted into the 96-well plate provided in the ELISA kit, added with 100µL of working solution of competitive molecule per well and the plate was incubated at room temperature for 1.5 hours. After discarding the liquid, the plate was washed with 300µL of washing solution per well three times and dried. After adding 150 µL of substrate chromogenic solution per well, the plate was incubated at room temperature for 10-15 minutes. After adding 50 µL of termination solution per well, the plate was incubated at room temperature for 10-15 minutes and read for absorbance at 450nm with Envision HTS Multilabel Reader.
The wells added with 1µM ODM-208 were defined as 100% inhibition (positive control), the wells containing DMSO at a final concentration of 0.1% were defined as 0% inhibition (negative control), and inhibitory ratio = (absorbance of tested sample - average absorbance of negative control)/(average absorbance of positive control - average absorbance of negative control)*100%. The data were subjected to four-parameter fitting using GraphPad Prism to calculate the IC50 values of the compounds.

| Structure (SMILES) | IC50 [nM] |
| --- | --- |
| Cn1c(CN2Cc3ccccc3C2)c(F)cc(C=CC2CCN(S(C)(=O)=O)CC2)c1=O [compound 104] | < 100 |
| Cn1c(CN2Cc3ccccc3C2)c(F)cc(C=CC2CCN(C(=O)OC(C)(C)C)CC2)c1=O [compound 105] | < 100 |
| [2H]C([2H])([2H])n1c(CN2Cc3ccccc3C2)c(F)cc(CCC2CCN(S(C)(=O)=O)CC2)c1=O [compound 106] | < 100 |
| CCn1c(CN2Cc3ccccc3C2)c(F)cc(CCC2CCN(S(C)(=O)=O)CC2)c1=O [compound 107] | < 100 |
| [2H]C(c1c(F)cc(CCC2CCN(S(C)(=O)=O)CC2)c(=O)n1C)N1Cc2ccccc2C1 (stereo not drawn) [compound 108] | < 100 |
| CC1CC(CCc2cc(F)c(CN3Cc4ccccc4C3)n(C)c2=O)CCN1S(C)(=O)=O (stereo not drawn) [compound 109] | < 100 |
| CCS(=O)(=O)N1CCC(C=Cc2cc(F)c(CN3Cc4ccccc4C3)n(C)c2=O)CC1 [compound 110] | < 100 |
| Cn1c(CN2Cc3ccccc3C2)c(F)cc(C=CC2CCN(S(=O)(=O)C3CC3)CC2)c1=O [compound 111] | < 100 |
| Cn1c(CN2Cc3ccccc3C2)c(F)cc(CCC2CCN(S(C)(=O)=O)CC2(C)C)c1=O (stereo not drawn) [compound 114] | < 100 |
| CC1CC(C#Cc2cc(F)c(CN3Cc4ccccc4C3)n(C)c2=O)CCN1C(=O)OC(C)(C)C (stereo not drawn) [compound 115] | < 100 |
| [2H]C([2H])(c1c(F)cc(CCC2CCN(S(C)(=O)=O)CC2)c(=O)n1C)N1Cc2ccccc2C1 [compound 116] | < 100 |
| CC1CC(CCc2cc(F)c(CN3Cc4ccccc4C3)n(C)c2=O)CCN1C(=O)OC(C)(C)C (stereo not drawn) [compound 117] | < 100 |
| Cn1c(CN2Cc3ccccc3C2)c(F)cc(CCN2CCN(S(C)(=O)=O)CC2)c1=O [compound 118] | 100 to 300 |
| CC(=O)N1CCN(CCc2cc(F)c(CN3Cc4ccccc4C3)n(C)c2=O)CC1 [compound 119] | 100 to 300 |
| Cn1c(CN2Cc3ccccc3C2)c(F)cc(-c2ccc3c(c2)CCN(S(C)(=O)=O)C3)c1=O [compound 120] | < 100 |
| [2H]C([2H])(c1c(F)cc(CCC2CCN(C(=O)OC(C)(C)C)CC2)c(=O)n1C)N1Cc2ccccc2C1 [compound 121] | < 100 |
| Cn1c(CN2Cc3ccccc3C2)c(F)cc(C(O)CC2CCN(C(=O)OC(C)(C)C)CC2)c1=O (stereo not drawn) [compound 122] | < 100 |
| Cn1c(CN2Cc3ccccc3C2)c(F)cc(C(F)=CC2CCN(S(C)(=O)=O)CC2)c1=O [compound 123] | < 100 |
| Cn1c(CN2Cc3ccccc3C2)c(F)cc(C(F)CC2CCN(S(C)(=O)=O)CC2)c1=O (stereo not drawn) [compound 124] | < 100 |
| Cn1c(CN2Cc3ccccc3C2)c(F)cc(C(=O)CC2CCN(C(=O)OC(C)(C)C)CC2)c1=O [compound 125] | < 100 |
| Cn1c(CN2Cc3ccccc3C2)c(F)cc(-c2cnc3c(c2)CCN(S(C)(=O)=O)C3)c1=O [compound 126] | < 100 |
| Cn1c(CN2Cc3ccccc3C2)c(F)cc(-c2ccc3c(n2)CCN(S(C)(=O)=O)C3)c1=O [compound 127] | > 300 |
| Cn1c(CN2Cc3ccccc3C2)c(F)cc(C(F)=CC2CCN(C(=O)OC(C)(C)C)CC2)c1=O [compound 128] | 100 to 300 |
| Cn1c(CN2Cc3ccccc3C2)c(F)cc(CCN2CCN(C(=O)OC(C)(C)C)CC2)c1=O [compound 129] | < 100 |

test system: not listed separately; test: PK study, intravenous and oral administration, plasma LC-MS/MS; format: in vivo; conditions: both sexes, 5 mg/kg, oral administration of 5 mpk, species not given (ICR mice or SD Rat)
Experimental: ICR mice (male/female, total 6 animals) were assigned to two groups for oral administration and intravenous administration, respectively, with 3 mice in each group. Before administration, the animals were fasted for 10-14 hours, with water available ad lib.
SD Rat (male/female, total 6 animals) were assigned to two groups for oral administration and intravenous administration, respectively, with 3 mice in each group. Before administration, the animals were fasted for 10-14 hours, with water available ad lib.
The compounds to be tested were weighed out in accordance with intended dosage, formulated with vehicles (5% DMSO + 10% Solutol + 85% physiological saline) to dosage form at appropriate concentrations (administered intravenously and orally in rats or mice at a volume of 5 mL/kg and 10 mL/kg, respectively). The dosage form for intravenous injection is a clear solution, and the dosage form for oral administration is a clear solution or homogenous suspension.
Administration to animals was conducted through intravenous injection and oral gavage, and blood samples were collected at 0.033, 0.083, 0.25, 0.5, 1, 2, 4, 8, and 24 hours after intravenous injection, or at 0.083, 0.25, 0.5, 1, 2, 4, 6, 8, and 24 hours after oral administration. After centrifugation of whole blood samples at 4°C and 6,800g for 6 minutes, the upper layers of plasma were stored at -80°C refrigerator before analysis.
The DMSO stock solutions of the substance to be tested were diluted with methanol or acetonitrile solution to serial working solutions and added to blank plasma matrix to formulate samples for standard curve and quality control. An appropriate volume of plasma sample was added with appropriate fold of methanol or acetonitrile containing internal standards, according to response, for protein precipitation. After centrifugation of all samples at 4°C and 18,000g for 10 min, appropriate volumes of supernatant were taken for LC-MS/MS analysis.
Plasma drug concentration-time curves were plotted in accordance with tested concentrations, and pharmacokinetic parameters were calculated based on non-compartmental model using WinNonlin software, including half-life (T1/2), area under the drug concentration-time curve (AUC0-t), clearance rate (CL), steady-state distribution volume (Vss), bioavailability (F), etc.

| Structure (SMILES) | AUC [ng·h/mL] | Cmax [ng/mL] |
| --- | --- | --- |
| Cn1c(CN2Cc3ccccc3C2)c(F)cc(C=CC2CCN(S(C)(=O)=O)CC2)c1=O [compound 113] | > 1700 | > 1000 |

same assay, conditions: both sexes, 5 mg/kg, oral administration of 5 mpk, species not given (ICR mice or SD Rat), read-out: bioavailability (F)

| Structure (SMILES) | bioavailability [%] |
| --- | --- |
| Cn1c(CN2Cc3ccccc3C2)c(F)cc(C=CC2CCN(S(C)(=O)=O)CC2)c1=O [compound 113] | > 60 |
